From patent US11077115B2, “Rorgamma modulators and uses thereof” (Genfit, priority 2017, dated 2021) come the findings set out here.

As usually defined, the melting point is the temperature, or range, at which the solid turns liquid.

Structures are written as SMILES. Structures can show the parent of a compound that is named as a salt.

With `Cc1ccc(N2CCCCC2)c(C(NC(=O)Cc2cnc(N3CCS(=O)(=O)CC3)nc2)c2ccc(C)o2)c1` (centres unmarked) (as salt: HCl) [Cpd. 17, 2-[2-(1,1-dioxo-1-thiomorpholin-4-yl)pyrimidin-5-yl]-N-{[5-methyl-2-(piperidin-1-yl)phenyl](5-methylfuran-2-yl)methyl}acetamide], the melting point is 159 °C.

Turning to `Cc1ccc(C(NC(=O)Cc2ccc(N3CCS(=O)(=O)CC3)cc2C)c2ccc(C)o2)c(N2CCCCC2)c1` (centres unmarked) (as salt: HCl) [Cpd. 18, 2-[4-(1,1-dioxo-1-thiomorpholin-4-yl)-2-methylphenyl]-N-{[4-methyl-2-(piperidin-1-yl)phenyl](5-methylfuran-2-yl)methyl}acetamide], the melting point worked out at 96 °C. As for `Cc1ccc(C(NC(=O)Cc2ccc(N3CCS(=O)(=O)CC3)cc2C)c2ccc(C)o2)c(C)c1` (centres unmarked) (as salt: HCl) [Cpd. 19, N-[(2,4-dimethylphenyl)(5-methylfuran-2-yl)methyl]-2-[4-(1,1-dioxo-1-thiomorpholin-4-yl)-2-methylphenyl]acetamide], the melting point came to 178 °C. Next, `Cc1ccc(C(NC(=O)Cc2cnc(N3CCS(=O)(=O)CC3)nc2)c2ccc(C)o2)c(N2CCCCC2)c1` (centres unmarked) (as salt: HCl) [Cpd. 20, 2-[2-(1,1-dioxo-1-thiomorpholin-4-yl)pyrimidin-5-yl]-N-{[4-methyl-2-(piperidin-1-yl)phenyl](5-methylfuran-2-yl)methyl}acetamide]: 91 °C; `Cc1ccc(C(NC(=O)Cc2ccc(N3CCS(=O)(=O)CC3)cc2C)c2ccc(C)o2)c(Br)c1` (centres unmarked) (as salt: HCl) [Cpd. 21, N-[(2-bromo-4-methylphenyl)(5-methylfuran-2-yl)methyl]-2-[4-(1,1-dioxo-1-thiomorpholin-4-yl)-2-methylphenyl]acetamide]: 173 °C; `Cc1ccc(C(NC(=O)Cc2ccc(N3CCS(=O)(=O)CC3)cc2)c2ccccc2)c(N2CC3CC3C2)c1` (centres unmarked) (as salt: HCl) [Cpd. 22, N-[(2-{3-azabicyclo[3.1.0]hexan-3-yl}-4-methylphenyl)(phenyl)methyl]-2-[4-(1,1-dioxo-1-thiomorpholin-4-yl)phenyl]acetamide]: 104 °C. The figure for `Cc1ccc(C(NC(=O)Cc2ccc(N3CCS(=O)(=O)CC3)c(C)c2)c2ccccc2)c(N2CC3CC3C2)c1` (centres unmarked) (as salt: HCl) [Cpd. 23, N-[(2-{3-azabicyclo[3.1.0]hexan-3-yl}-4-methylphenyl)(phenyl)methyl]-2-[4-(1,1-dioxo-1-thiomorpholin-4-yl)-3-methylphenyl]acetamide] is 109 °C; for `Cc1ccc(C(NC(=O)Cc2ccc(N3CCS(=O)(=O)CC3)cc2)c2ccc(C)o2)c(C(F)(F)F)c1` (centres unmarked) (as salt: HCl) [Cpd. 24, 2-[4-(1,1-dioxo-1-thiomorpholin-4-yl)phenyl]-N-{[4-methyl-2-(trifluoromethyl)phenyl](5-methylfuran-2-yl)methyl}acetamide] it is 90 °C. Next, `Cc1ccc(C(NC(=O)Cc2ccc(N3CCOCC3)nc2)c2ccc(C)o2)c(N2CCCCC2)c1` (centres unmarked) (as salt: HCl) [Cpd. 25, N-{[4-methyl-2-(piperidin-1-yl)phenyl](5-methylfuran-2-yl)methyl}-2-[6-(morpholin-4-yl)pyridin-3-yl]acetamide]: 61 °C; `Cc1ccc(C(NC(=O)Cc2cnc(N3CCOCC3)nc2)c2ccc(C)o2)c(N2CCCCC2)c1` (centres unmarked) (as salt: HCl) [Cpd. 26, N-{[4-methyl-2-(piperidin-1-yl)phenyl](5-methylfuran-2-yl)methyl}-2-[2-(morpholin-4-yl)pyrimidin-5-yl]acetamide]: 69 °C.

Turning to `Cc1ccc(C(NC(=O)Cc2ccc(N3CCS(=O)(=O)CC3)nc2)c2ccc(C)o2)c(N2CCCCC2)c1` (centres unmarked) (as salt: HCl) [Cpd. 27, 2-[6-(1,1-dioxo-1-thiomorpholin-4-yl)pyridin-3-yl]-N-{[4-methyl-2-(piperidin-1-yl)phenyl](5-methylfuran-2-yl)methyl}acetamide], the melting point worked out at 102 °C.
